The text below walks through data of ChEMBL document CHEMBL4138187, “Novel 2-(2-arylmethylthio-4-chloro-5-methylbenzenesulfonyl)-1-(1,3,5-triazin-2-ylamino)guanidine derivatives: Inhibition of human carbonic anhydrase cytosolic isozymes I and II and the transmembrane tumor-associated isozymes IX and XII, anticancer activity, and molecular modeling studies” (Eur J Med Chem, 2018).

Some targets named below: Carbonic anhydrase 1 (Homo sapiens, UniProt P00915); Carbonic anhydrase 9 (Homo sapiens, UniProt Q16790); Carbonic anhydrase 2 (Homo sapiens, UniProt P00918).
A further assay has as its system HCT-116. Description: Cytotoxicity against human HCT116 cells after 72 hrs by MTT assay. It is filed as functional, cell-based. The note with it: HCT-116, 72 h.
The subject of the next assay is HeLa. Nature of the assay: Cytotoxicity against human HeLa cells after 72 hrs by MTT assay. It counts as functional, cell-based. For orientation: Tetrazolium dyes change colour on reduction, which living cells bring about.
A further assay has as its system MCF7. Nature of the assay: Cytotoxicity against human MCF7 cells after 72 hrs by MTT assay. It is filed as functional, cell-based. The note with it: MCF7, 72 h.
The next assay relates to HaCaT. Nature of the assay: Cytotoxicity against human HaCaT cells after 72 hrs by MTT assay. It counts as cell-based.

Molecules are shown by their SMILES. A value given as a limit tells only on which side of the number the result lay.

Chain of Carbonic anhydrase 1 (P00915 whole entry): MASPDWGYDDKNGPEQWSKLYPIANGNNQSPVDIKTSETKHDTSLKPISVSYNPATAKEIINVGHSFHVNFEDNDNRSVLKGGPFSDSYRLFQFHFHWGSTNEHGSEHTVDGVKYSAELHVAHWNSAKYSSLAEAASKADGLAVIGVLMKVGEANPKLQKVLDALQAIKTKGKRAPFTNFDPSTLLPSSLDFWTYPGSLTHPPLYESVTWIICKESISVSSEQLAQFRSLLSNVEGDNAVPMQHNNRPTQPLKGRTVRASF
Description for Carbonic anhydrase 1: Inhibition of human carbonic anhydrase 1 by stopped-flow CO2 hydration assay
Description for Carbonic anhydrase 2: Inhibition of human carbonic anhydrase 2 by stopped-flow CO2 hydration assay
Description for Carbonic anhydrase 9: Inhibition of human carbonic anhydrase 9 by stopped-flow CO2 hydration assay

With `N/C(=N\S(=O)(=O)c1ccccc1SCc1cccc2ccccc12)NNc1nc(Cl)nc(NCc2ccc(S(N)(=O)=O)cc2)n1`, the Ki – broadly, the dissociation constant of the complex between target and ligand, obtained from inhibition or displacement – worked out at 2140 nM on Carbonic anhydrase 1, 383 nM at Carbonic anhydrase 9 and 187 nM on Carbonic anhydrase 2. In addition, the IC50 in the assay with HCT-116, in the assay on HeLa and in the assay on MCF7 was greater than 100000 nM throughout.
For the compound `N/C(=N\S(=O)(=O)c1ccccc1SCc1ccccc1)NNc1nc(Cl)nc(NCc2ccc(S(N)(=O)=O)cc2)n1`, the Ki is 294 nM at Carbonic anhydrase 1, 46.9 nM on Carbonic anhydrase 9 and 38.8 nM at Carbonic anhydrase 2. Besides, the IC50 in the assay on HCT-116, with HeLa and in the assay with MCF7 was greater than 100000 nM throughout.
`N/C(=N\S(=O)(=O)c1ccccc1SCc1ccc(C(F)(F)F)cc1)NNc1nc(Cl)nc(NCc2ccc(S(N)(=O)=O)cc2)n1`: the Ki on Carbonic anhydrase 1 is 514 nM; on Carbonic anhydrase 9 it was 47.1 nM; on Carbonic anhydrase 2 it was 89.5 nM. Moreover, the IC50 in the assay with HCT-116, with HeLa and in the assay on MCF7 was greater than 100000 nM in each case.
As for `N/C(=N\S(=O)(=O)c1ccccc1SCc1ccc(C(F)(F)F)cc1)NNc1nc(Cl)nc(Nc2ccc(S(N)(=O)=O)cc2)n1`, the Ki on Carbonic anhydrase 1 was determined as 386 nM; on Carbonic anhydrase 9, 42.9 nM; on Carbonic anhydrase 2, 22 nM. Further, the IC50 in the assay with HCT-116, with HeLa and in the assay with MCF7 was greater than 100000 nM in each case.
Consider `N/C(=N\S(=O)(=O)c1ccccc1SCc1cccc(C(F)(F)F)c1)NNc1nc(Cl)nc(Nc2cccc(S(N)(=O)=O)c2)n1`, for which the Ki is 337 nM on Carbonic anhydrase 1, 3340 nM at Carbonic anhydrase 9 and 9.3 nM at Carbonic anhydrase 2. Further, the IC50 in the assay on HCT-116, in the assay with HeLa and in the assay on MCF7 was greater than 100000 nM each time.
For the compound `N/C(=N\S(=O)(=O)c1ccccc1SCc1cccc(C(F)(F)F)c1)NNc1nc(Cl)nc(Nc2ccc(S(N)(=O)=O)cc2)n1`, the Ki at Carbonic anhydrase 1 was found to be 148 nM; on Carbonic anhydrase 9, 37.1 nM; at Carbonic anhydrase 2, 7.4 nM. Further, the IC50 in the assay with HCT-116, with HeLa and in the assay on MCF7 was greater than 100000 nM in each case.
Regarding `N/C(=N\S(=O)(=O)c1ccccc1SCc1cccc2ccccc12)NNc1nc(Cl)nc(Nc2cccc(S(N)(=O)=O)c2)n1`, the Ki on Carbonic anhydrase 1 stood at 3340 nM; at Carbonic anhydrase 9, 3400 nM; at Carbonic anhydrase 2, 933 nM. Besides, the IC50 with HCT-116, in the assay with HeLa and in the assay on MCF7 was greater than 100000 nM each time.
For the compound `N/C(=N\S(=O)(=O)c1ccccc1SCc1ccc(C(F)(F)F)cc1)NNc1nc(Cl)nc(Nc2cccc(S(N)(=O)=O)c2)n1`, the Ki at Carbonic anhydrase 1 stood at 536 nM; on Carbonic anhydrase 9, 421 nM; on Carbonic anhydrase 2 it was 326 nM. The IC50 in the assay on HCT-116, with HeLa and in the assay on MCF7 was greater than 100000 nM each time.
Turning to `N/C(=N\S(=O)(=O)c1ccccc1SCc1ccccc1)NNc1nc(Cl)nc(Nc2cccc(S(N)(=O)=O)c2)n1`, the Ki on Carbonic anhydrase 1 is 396 nM; on Carbonic anhydrase 9, 3970 nM; at Carbonic anhydrase 2 it was 94.7 nM. The IC50 in the assay on HCT-116, with HeLa and in the assay on MCF7 was greater than 100000 nM each time.
As to `N/C(=N\S(=O)(=O)c1ccccc1SCc1ccccc1)NNc1nc(Cl)nc(Nc2ccc(S(N)(=O)=O)cc2)n1`, the Ki was found to be 66.6 nM at Carbonic anhydrase 1, 39.4 nM at Carbonic anhydrase 9 and 83.7 nM at Carbonic anhydrase 2. The IC50 in the assay with HCT-116, in the assay on HeLa and in the assay on MCF7 was greater than 100000 nM throughout.
As to `N/C(=N\S(=O)(=O)c1ccccc1SCc1cccc2ccccc12)NNc1nc(Cl)nc(Nc2ccc(S(N)(=O)=O)cc2)n1`, the IC50 (as a rule, the midpoint of a concentration-inhibition curve) with HaCaT amounted to 61000 nM; with HeLa it was 17000 nM. In addition, the inhibition constant Ki was 733 nM at Carbonic anhydrase 1, 41.1 nM at Carbonic anhydrase 9 and 161 nM at Carbonic anhydrase 2.
Turning to `N/C(=N\S(=O)(=O)c1ccccc1SCc1cccc(C(F)(F)F)c1)NNc1nc(Cl)nc(NCc2ccc(S(N)(=O)=O)cc2)n1`, the figures for the Ki on Carbonic anhydrase 1, on Carbonic anhydrase 9 and at Carbonic anhydrase 2 were 219 nM, 43.6 nM and 5.4 nM, respectively. Also, the IC50 in the assay with HCT-116, in the assay with HeLa and in the assay with MCF7 was greater than 100000 nM in each case.
